Laboratory results as given in PubChem BioAssay (NCI).
Several values for one entry are separate records, joined by “and”; a condition that tells them apart may be missing. Equal entries are not always repeated.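 Step 1: Grow cells in 96-well plates. Step 2: Expose to compound for 48 hours at 5 concentrations. Step 3: Interpolate endpoints linearly; if unreached, use highest concentration. The concentration for 50% growth inhibition is given as GI50. TGI marks complete inhibition of growth.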

Tested on: SW-620 colon
Experiment: growth of human tumour cells (NCI), 48 h

Row | Compound | GI50 [µM] | TGI
1 | Nc1cc2nc3ccccc3sc-2cc1=O | 2.95 | 10.4 µM
2 | CN(CC(=O)O)S(=O)(=O)c1ccc2ccccc2c1 | – | > 100 µM
3 | CC1=C(C(=O)Nc2ccccc2C)C(c2ccco2)C(C(=O)Nc2ccccc2C)=C(C)N1C | – | > 100 µM
4 | COc1cc2nc(-c3ccc(C(F)(F)F)cc3)cc(OCCCN3CCC(O)CC3)c2cc1OC | 3.53 | 14.8 µM
5 | CC(=O)OC(C)C(=O)C1c2cccc(O)c2C(=O)c2c(O)cc(C)cc21 (configuration not stated) | – | 1.71 µM
6 | O=C1NNC(=O)c2ccccc2SSc2ccccc2C(=O)NNC(=O)c2ccccc2SSc2ccccc21 | 6.81 | 50 µM and > 100 µM
7 | NC(CCc1nc(-c2ccc(Cl)cc2)cs1)C(=O)O (configuration not stated) | – | > 100 µM
8 | COc1cc(C(=O)/C=C/c2sc(Cl)nc2Cl)cc(OC)c1OC | 1.68 | 3.45 µM
9 | COc1cc2nc(C)nc(N[C@H](C)c3cc(N)cc(C(F)(F)F)c3)c2cc1O[C@H]1CCOC1 | 14.6 | 31.3 µM
10 | O=C1c2ccccc2C(=O)c2sc(Nc3cccc(Cl)c3)nc21 | – | 2.26 µM
11 | CC1=C(C(=O)Nc2ccc(F)c(Cl)c2)C(c2ccc(Cl)cc2)NC(=O)N1 (configuration not stated) | 24.8 | 66 µM
12 | Fc1ccc(Nc2ncnc3ccc(-c4cnc5[nH]ccc5c4)cc23)cc1Cl | 4.02 | > 47.3 µM
13 | CN(C)CCCNC1=C(Cl)C(=O)c2ccccc2C1=O | 1.69 | 3.42 µM
14 | O=C(Nc1ccc(F)cc1F)c1cc(I)ccc1O | 3.39 | 90.7 µM

Tested on: HOP-92 NSCLC
Experiment: growth of human tumour cells (NCI), 48 h

Row | Compound | GI50 [nM] | TGI [µM]
15 | C[C@@H](CS(C)(=O)=O)Nc1ncc2cc(Oc3ccc(F)cc3F)c(=O)n(C)c2n1 | > 6750 | > 25
16 | COc1cc2c(c(OC)c1O)C(=O)C(OC)C(c1ccc(O)c(O)c1)O2 (configuration not stated) | 697 | > 28.9
17 | Cn1ccnc1C(=O)/C=C/c1ccc(CC(=O)Nc2ccc(Br)cc2)cc1 | 3150 | 8.26
18 | CCOC(=O)Nc1nc2ccc(OCC)cc2s1 | > 62700 | > 100
19 | NS(=O)(=O)c1ccccc1C(=O)N/N=C(\c1nc2ccc([N+](=O)[O-])cc2[nH]c1=O)C(O)c1ccc([N+](=O)[O-])cc1 (configuration not stated) | – | > 100
20 | N#CC(C#N)=c1ccc(=C2NCC3CCCN23)cc1 (configuration not stated) | – | > 100
21 | CC(C)c1ccc(C(C)C(=O)N(CC2=C(C(C)c3ccccn3)c3ccccc3C2)C(C)C)cc1 (configuration not stated) | 1980 | 12.8
22 | Cc1nc2c(nc1C)C(=O)c1ccccc1C2=O | – | 45
23 | O=[N+]([O-])c1cnc(Sc2ccncn2)s1 | 1990 | 4.4
24 | O=C(Nc1ccc(I)cc1)c1cc([N+](=O)[O-])ccc1O | 709 | 3.99
25 | Cc1cc(=O)n2[nH]c(-c3ccc(C(C)(C)C)cc3)cc2n1 | 6600 | 51.6
26 | O=C(N/C(=C\c1cc(Cl)ccc1Cl)c1nc2[nH]c(=S)[nH]c(=O)c2[nH]1)c1ccccc1 | – | > 75.1
27 | O=C(CN1CCN(c2cc3c(cc2F)c(=O)c(C(=O)N/N=C/c2ccccc2O)cn3C2CC2)CC1)N/N=C\c1ccccc1O | 2150 | > 100
28 | C=C(CNCCO)[C@@H]1CC[C@]2(CO)CC[C@]3(C)[C@H](CC[C@@H]4[C@@]5(C)CCC(N)C(C)(C)[C@@H]5CC[C@]43C)[C@@H]12 (some centres not stated) | 1290 | 2.76
29 | Nc1cc2nc3ccccc3sc-2cc1=O | 2770 | 9.59
30 | CN(CC(=O)O)S(=O)(=O)c1ccc2ccccc2c1 | – | > 100
31 | CC1=C(C(=O)Nc2ccccc2C)C(c2ccco2)C(C(=O)Nc2ccccc2C)=C(C)N1C | – | > 100
32 | COc1cc2nc(-c3ccc(C(F)(F)F)cc3)cc(OCCCN3CCC(O)CC3)c2cc1OC | 1680 | 9.64
33 | CC(=O)OC(C)C(=O)C1c2cccc(O)c2C(=O)c2c(O)cc(C)cc21 (configuration not stated) | – | 1.02
34 | O=C1NNC(=O)c2ccccc2SSc2ccccc2C(=O)NNC(=O)c2ccccc2SSc2ccccc21 | > 100000 | > 100
35 | NC(CCc1nc(-c2ccc(Cl)cc2)cs1)C(=O)O (configuration not stated) | – | > 100
36 | COc1cc(C(=O)/C=C/c2sc(Cl)nc2Cl)cc(OC)c1OC | 1600 | 3.19
37 | COc1cc2nc(C)nc(N[C@H](C)c3cc(N)cc(C(F)(F)F)c3)c2cc1O[C@H]1CCOC1 | 62.3 | 7.31
38 | O=C1c2ccccc2C(=O)c2sc(Nc3cccc(Cl)c3)nc21 | 1820 | 9.1
39 | CC1=C(C(=O)Nc2ccc(F)c(Cl)c2)C(c2ccc(Cl)cc2)NC(=O)N1 (configuration not stated) | 11800 | 26.6
40 | Fc1ccc(Nc2ncnc3ccc(-c4cnc5[nH]ccc5c4)cc23)cc1Cl | 1680 | 5.49
41 | CN(C)CCCNC1=C(Cl)C(=O)c2ccccc2C1=O | 2860 | 12.3
42 | O=C(Nc1ccc(F)cc1F)c1cc(I)ccc1O | 1200 | 4.65

Tested on: OVCAR-5 ovarian
Experiment: growth of human tumour cells (NCI), 48 h

Row | Compound | GI50 [µM] | TGI
43 | C[C@@H](CS(C)(=O)=O)Nc1ncc2cc(Oc3ccc(F)cc3F)c(=O)n(C)c2n1 | > 25 | > 25 µM
44 | COc1cc2c(c(OC)c1O)C(=O)C(OC)C(c1ccc(O)c(O)c1)O2 (configuration not stated) | 2.27 | > 100 µM
45 | Cn1ccnc1C(=O)/C=C/c1ccc(CC(=O)Nc2ccc(Br)cc2)cc1 | 2.74 | 7.38 µM
46 | CCOC(=O)Nc1nc2ccc(OCC)cc2s1 | > 100 | > 100 µM
47 | NS(=O)(=O)c1ccccc1C(=O)N/N=C(\c1nc2ccc([N+](=O)[O-])cc2[nH]c1=O)C(O)c1ccc([N+](=O)[O-])cc1 (configuration not stated) | – | > 100 µM
48 | N#CC(C#N)=c1ccc(=C2NCC3CCCN23)cc1 (configuration not stated) | – | > 100 µM
49 | CC(C)c1ccc(C(C)C(=O)N(CC2=C(C(C)c3ccccn3)c3ccccc3C2)C(C)C)cc1 (configuration not stated) | 5.33 | 95.9 µM
50 | Cc1nc2c(nc1C)C(=O)c1ccccc1C2=O | – | 9.62 µM
51 | O=[N+]([O-])c1cnc(Sc2ccncn2)s1 | 14 | 28.3 µM
52 | O=C(Nc1ccc(I)cc1)c1cc([N+](=O)[O-])ccc1O | 27.9 | > 100 µM
53 | Cc1cc(=O)n2[nH]c(-c3ccc(C(C)(C)C)cc3)cc2n1 | 17.7 | > 100 µM
54 | O=C(N/C(=C\c1cc(Cl)ccc1Cl)c1nc2[nH]c(=S)[nH]c(=O)c2[nH]1)c1ccccc1 | – | > 100 µM
55 | O=C(CN1CCN(c2cc3c(cc2F)c(=O)c(C(=O)N/N=C/c2ccccc2O)cn3C2CC2)CC1)N/N=C\c1ccccc1O | 1.62 | > 100 µM
56 | C=C(CNCCO)[C@@H]1CC[C@]2(CO)CC[C@]3(C)[C@H](CC[C@@H]4[C@@]5(C)CCC(N)C(C)(C)[C@@H]5CC[C@]43C)[C@@H]12 (some centres not stated) | 5.08 | 18.1 µM
57 | Nc1cc2nc3ccccc3sc-2cc1=O | 1.93 | 4.08 µM
58 | CN(CC(=O)O)S(=O)(=O)c1ccc2ccccc2c1 | – | > 100 µM
59 | CC1=C(C(=O)Nc2ccccc2C)C(c2ccco2)C(C(=O)Nc2ccccc2C)=C(C)N1C | – | > 100 µM
60 | COc1cc2nc(-c3ccc(C(F)(F)F)cc3)cc(OCCCN3CCC(O)CC3)c2cc1OC | 3.14 | 20.7 µM
61 | CC(=O)OC(C)C(=O)C1c2cccc(O)c2C(=O)c2c(O)cc(C)cc21 (configuration not stated) | – | 2.59 µM
62 | O=C1NNC(=O)c2ccccc2SSc2ccccc2C(=O)NNC(=O)c2ccccc2SSc2ccccc21 | – | 50 µM and 73.8 µM
63 | NC(CCc1nc(-c2ccc(Cl)cc2)cs1)C(=O)O (configuration not stated) | – | > 100 µM
64 | COc1cc(C(=O)/C=C/c2sc(Cl)nc2Cl)cc(OC)c1OC | 1.72 | 3.27 µM
65 | COc1cc2nc(C)nc(N[C@H](C)c3cc(N)cc(C(F)(F)F)c3)c2cc1O[C@H]1CCOC1 | 13.4 | 28.5 µM
66 | O=C1c2ccccc2C(=O)c2sc(Nc3cccc(Cl)c3)nc21 | – | 4.78 µM
67 | CC1=C(C(=O)Nc2ccc(F)c(Cl)c2)C(c2ccc(Cl)cc2)NC(=O)N1 (configuration not stated) | 19.5 | 42.9 µM
68 | Fc1ccc(Nc2ncnc3ccc(-c4cnc5[nH]ccc5c4)cc23)cc1Cl | 2.13 | 10.6 µM
69 | CN(C)CCCNC1=C(Cl)C(=O)c2ccccc2C1=O | 4.27 | 9.63 µM
70 | O=C(Nc1ccc(F)cc1F)c1cc(I)ccc1O | 3.72 | > 100 µM
